{
  "source": "ChEMBL document CHEMBL5620346",
  "about": "“Current scenario of pyrazole hybrids with in vivo therapeutic potential against cancers” (Eur J Med Chem, 2023)",
  "key": {"MCF7 [1]": {"system": "MCF7", "assay": "Cytotoxicity against human MCF7 cells assessed as reduction in cell viability measured after 72 hrs by SRB assay", "assay_type": "functional, cell-based", "conditions": "MCF7, 72 h"}, "MCF-10A": {"system": "MCF-10A", "assay": "Cytotoxicity against human MCF-10A cells assessed as reduction in cell viability measured after 72 hrs by SRB assay", "assay_type": "functional, cell-based"}, "[2]": {"assay": "[…] in mouse xenografted with human NCI-H526 cells assessed as reduction in tumor growth at 3 mg/kg, po relative to control", "assay_type": "organism-based", "conditions": "in vivo"}, "HT-29 [3]": {"system": "HT-29", "assay": "Antiproliferative activity against human HT-29 cells assessed as reduction in cell viability incubated for 72 hrs by MTT assay", "assay_type": "functional, cell-based", "conditions": "HT-29, 72 h"}, "HCT-116": {"system": "HCT-116", "assay": "Antiproliferative activity against human HCT-116 cells assessed as reduction in cell viability incubated for 72 hrs by MTT assay", "assay_type": "functional, cell-based", "conditions": "HCT-116, 72 h"}, "HGC-27": {"system": "HGC-27", "assay": "Antiproliferative activity against human HGC-27 cells assessed as reduction in cell viability incubated for 72 hrs by MTT assay", "assay_type": "functional, cell-based", "conditions": "HGC-27, 72 h"}, "HeLa [4]": {"system": "HeLa", "assay": "Antiproliferative activity against human HeLa cells assessed as reduction in cell viability incubated for 72 hrs by MTT assay", "assay_type": "functional, cell-based"}, "HT-29 [5]": {"system": "HT-29", "assay": "Antitumor activity against human HT-29 cells xenografted in po dosed nude mouse assessed as reduction in tumor growth at 20 mg/kg relative to control", "assay_type": "functional", "conditions": "read-out: TGI"}, "[6]": {"assay": "Tmax in mouse at 1 mg/kg, sc", "assay_type": "ADME, organism-based", "conditions": "in vivo"}, "[7]": {"assay": "Cmax in mouse at 1 mg/kg, sc", "assay_type": "ADME, organism-based", "conditions": "in vivo"}, "[8]": {"assay": "Oral bioavailability in mouse at 1 mg/kg", "assay_type": "ADME, organism-based", "conditions": "in vivo"}, "T47D": {"system": "T47D", "assay": "Antiproliferative activity against human T47D cells assessed as reduction in cell viability incubated for 72 hrs by MTT assay", "assay_type": "functional, cell-based"}, "BT-549 [9]": {"system": "BT-549", "assay": "Antiproliferative activity against human BT-549 cells assessed as inhibition of cell proliferation incubated for 72 hrs by MTT assay", "assay_type": "functional, cell-based", "conditions": "BT-549, 72 h"}, "MCF7 [10]": {"system": "MCF7", "assay": "Antiproliferative activity against human MCF7 cells assessed as reduction in cell viability incubated for 72 hrs by MTT assay", "assay_type": "functional, cell-based", "conditions": "MCF7, 72 h"}, "MDA-MB-453": {"system": "MDA-MB-453", "assay": "Antiproliferative activity against human MDA-MB-453 cells assessed as reduction in cell viability incubated for 72 hrs by MTT assay", "assay_type": "functional, cell-based", "conditions": "MDA-MB-453, 72 h"}, "MDA-MB-231": {"system": "MDA-MB-231", "assay": "Antiproliferative activity against human MDA-MB-231 cells assessed as reduction in cell viability incubated for 72 hrs by MTT assay", "assay_type": "functional, cell-based", "conditions": "MDA-MB-231, 72 h"}, "BT-549 [11]": {"system": "BT-549", "assay": "Antitumor activity against human BT-549 cells xenografted in BALB/c nude mouse assessed as tumor growth inhibition at 30 mg/kg, sc administered for 20 days relative to control", "assay_type": "functional", "conditions": "BT-549, 480 h, time 20 day, read-out: TGI"}, "KCL-22": {"system": "KCL-22", "assay": "Antitumor activity against human KCL-22 cells xenografted in mouse assessed as reduction in tumor growth at 3 mg/kg, po relative to control", "conditions": "KCL-22, po, read-out: TGI"}, "[12]": {"assay": "Tmax in mouse at 40 mg/kg, po", "assay_type": "ADME, organism-based", "conditions": "in vivo"}, "[13]": {"assay": "Half life in mouse at 40 mg/kg, po", "assay_type": "ADME, organism-based", "conditions": "in vivo"}, "HepG2": {"system": "HepG2", "assay": "Cytotoxicity against human HepG2 cells assessed as reduction in cell viability incubated for 72 hrs by MTT assay", "assay_type": "functional, cell-based", "conditions": "HepG2, 72 h"}, "MCF7 [14]": {"system": "MCF7", "assay": "Cytotoxicity against human MCF7 cells assessed as reduction in cell viability incubated for 72 hrs by MTT assay", "assay_type": "functional, cell-based", "conditions": "MCF7, 72 h"}, "HeLa [15]": {"system": "HeLa", "assay": "Cytotoxicity against human HeLa cells assessed as reduction in cell viability incubated for 72 hrs by MTT assay", "assay_type": "functional, cell-based"}, "HT-29 [16]": {"system": "HT-29", "assay": "Antiproliferative activity against human HT-29 cells assessed as cell growth inhibition incubated for 72 hrs by MTT assay", "assay_type": "functional, cell-based", "conditions": "HT-29, 72 h"}, "MCF7 [17]": {"system": "MCF7", "assay": "Antiproliferative activity against human MCF7 cells assessed as cell growth inhibition incubated for 72 hrs by MTT assay", "assay_type": "functional, cell-based", "conditions": "MCF7, 72 h"}, "HT-29 [18]": {"system": "HT-29", "assay": "Antitumor activity against human HT-29 cells xenografted in nude mouse assessed as reduction in tumor growth at 50 mg/kg, po administered for 21 days relative to control", "assay_type": "functional", "conditions": "HT-29, 504 h, time 21 day, read-out: TGI"}, "HT-29 [19]": {"system": "HT-29", "assay": "Antitumor activity against human HT-29 cells xenografted in nude mouse assessed as reduction in tumor growth at 50 mg/kg, ip administered for 21 days relative to control", "assay_type": "functional", "conditions": "HT-29, 504 h, time 21 day, read-out: TGI"}, "OE19 [20]": {"system": "OE19", "assay": "Antitumor activity against human OE19 cells xenografted in NOD/SCID mouse model assessed as tumor growth inhibition at 25 mg/kg, ip administered for 14 days relative to control", "assay_type": "functional", "conditions": "OE19, 336 h, time 14 day, read-out: TGI"}, "OE19 [21]": {"system": "OE19", "assay": "Antitumor activity against human OE19 cells xenografted in NOD/SCID mouse model assessed as tumor growth inhibition at 25 mg/kg, ip administered for 14 days in presence of flavopiridol relative to control", "assay_type": "functional", "set-up": "scale not given: the % may be the effect or the level left", "conditions": "time 14 day"}, "OE19 [22]": {"system": "OE19", "assay": "Antitumor activity against human OE19 cells xenografted in NOD/SCID mouse model assessed as tumor growth inhibition at 25 mg/kg, ip administered for 46 days relative to control", "assay_type": "functional", "set-up": "scale not given: the % may be the effect or the level left", "conditions": "time 46 day"}, "NCI-H460": {"system": "NCI-H460", "assay": "Antitumor activity against human NCI-H460 cells xenografted in nude mouse assessed as tumor growth inhibition at 6.25 mg/kg, po administered twice daily for 14 days in presence of 2-deoxyglucose relative to control", "assay_type": "functional", "set-up": "scale not given: the % may be the effect or the level left", "conditions": "time 14 day"}},
  "data": [
    {"smiles": "COc1ccc(C2CC(c3ccc(OC)c(OC)c3)=NN2c2nc(-c3ccccc3)cs2)cc1", "note": "(centres undefined)", "values": [
      {"measurement": "IC50", "setting": "MCF7 [1]", "result": 7.21, "unit": "µM"},
      {"measurement": "IC50", "setting": "MCF-10A", "result": "> 50", "unit": "µM"}
    ]},
    {"smiles": "Cc1nnn(C)c1-c1cnc2c3cc4cnn(C)c4cc3n([C@H](c3ccccc3)C3CCOCC3)c2c1", "values": [
      {"measurement": "TGI", "setting": "[2]", "result": 100, "unit": "%"}
    ]},
    {"smiles": "COc1cc(/C=C2\\CCCN3C(=O)C4C=NN(C)C4N=C23)cc(OC)c1OC", "note": "(centres undefined)", "values": [
      {"measurement": "IC50", "setting": "HT-29 [3]", "result": 0.03, "unit": "µM"},
      {"measurement": "IC50", "setting": "HCT-116", "result": 0.03, "unit": "µM"},
      {"measurement": "IC50", "setting": "HGC-27", "result": 0.03, "unit": "µM"},
      {"measurement": "IC50", "setting": "HeLa [4]", "result": 0.03, "unit": "µM"},
      {"measurement": "inhibition in vivo at 20 mg/kg", "setting": "HT-29 [5]", "result": 61.7, "unit": "%"},
      {"measurement": "Tmax", "setting": "[6]", "result": 1.67, "unit": "h"},
      {"measurement": "Cmax", "setting": "[7]", "result": 68.8, "unit": "ng/mL"},
      {"measurement": "bioavailability", "setting": "[8]", "result": 78.6, "unit": "%"}
    ]},
    {"smiles": "CN(C)S(=O)(=O)Nc1cccc(-c2cnn(-c3ccc(C(F)(F)F)cc3)c2)c1", "values": [
      {"measurement": "IC50", "setting": "T47D", "result": 3.44, "unit": "µM"},
      {"measurement": "IC50", "setting": "BT-549 [9]", "result": 3.44, "unit": "µM"},
      {"measurement": "IC50", "setting": "MCF7 [10]", "result": 3.44, "unit": "µM"},
      {"measurement": "IC50", "setting": "MDA-MB-453", "result": 3.44, "unit": "µM"},
      {"measurement": "IC50", "setting": "MDA-MB-231", "result": 3.44, "unit": "µM"},
      {"measurement": "inhibition in vivo at 30 mg/kg", "setting": "BT-549 [11]", "result": "~50", "unit": "%"}
    ]},
    {"smiles": "O=C(Nc1ccc(OC(F)(F)Cl)cc1)c1cnc(N2CC[C@@H](O)C2)c(-c2ccn[nH]2)c1", "note": "[ASCIMINIB]", "values": [
      {"measurement": "inhibition in vivo at 3 mg/kg", "setting": "KCL-22", "result": 65, "unit": "%"},
      {"measurement": "Tmax", "setting": "[12]", "result": 2.5, "unit": "h"},
      {"measurement": "half-life", "setting": "[13]", "result": 5.5, "unit": "h"}
    ]},
    {"smiles": "CCOC(=O)C1=C(N/C=N/c2cccnc2Cl)Nc2[nH]nc(C)c2C1c1ccc(N(C)C)cc1", "note": "(centres undefined)", "values": [
      {"measurement": "IC50", "setting": "HepG2", "result": 4.55, "unit": "µM"},
      {"measurement": "IC50", "setting": "MCF7 [14]", "result": 4.24, "unit": "µM"},
      {"measurement": "IC50", "setting": "HeLa [15]", "result": 4.18, "unit": "µM"}
    ]},
    {"smiles": "O=C1CN(CC(=O)N2N=C(c3ccccc3)CC2c2ccccc2)C(=O)N1", "note": "(centres undefined)", "values": [
      {"measurement": "IC50", "setting": "HT-29 [16]", "result": 0.01, "unit": "µM"},
      {"measurement": "IC50", "setting": "MCF7 [17]", "result": 0.69, "unit": "µM"},
      {"measurement": "inhibition in vivo at 50 mg/kg", "setting": "HT-29 [18]", "result": 34, "unit": "%"},
      {"measurement": "inhibition in vivo at 50 mg/kg", "setting": "HT-29 [19]", "result": 31, "unit": "%"}
    ]},
    {"smiles": "Cc1n[nH]c2c1C(c1ccc(N(C)C)cc1)C(C(N)=O)=C(N)N2", "note": "(centres undefined)", "values": [
      {"measurement": "IC50", "setting": "HepG2", "result": 4.55, "unit": "µM"},
      {"measurement": "IC50", "setting": "MCF7 [14]", "result": 4.24, "unit": "µM"},
      {"measurement": "IC50", "setting": "HeLa [15]", "result": 4.18, "unit": "µM"}
    ]},
    {"smiles": "C[C@@]1(C(=O)Nc2ccc(F)nc2)CCCN1c1nc(Nc2cc(C3CC3)n[nH]2)c2cccn2n1", "note": "[BMS-754807]", "values": [
      {"measurement": "inhibition in vivo at 25 mg/kg", "setting": "OE19 [20]", "result": 52, "unit": "%"},
      {"measurement": "Activity", "setting": "OE19 [21]", "result": 92.2, "unit": "%"},
      {"measurement": "Activity", "setting": "OE19 [22]", "result": 61.8, "unit": "%"},
      {"measurement": "Activity", "setting": "NCI-H460", "result": 69, "unit": "%"}
    ]}
  ]
}
